From US20120313040A1, “COATING LIQUID, OPTICAL ANISOTROPIC FILM AND IMAGE DISPLAY DEVICE” (NITTO DENKO CORPORATION, priority 2011, published 2012)
Read-outs that look alike come from different tables or passages of the source.

What was measured:
[1] = Dissolution in ion-exchanged water to prepare a 30 mass % coating liquid; format: physicochemical
Procedure: The lyotropic liquid crystalline compound of formula (4) was dissolved in ion-exchanged water, thereby preparing a coating liquid having a concentration of the lyotropic liquid crystalline compound of 30 mass %.
The lyotropic liquid crystalline compound of formula (5) was dissolved in ion-exchanged water, thereby preparing a coating liquid having a concentration of the lyotropic liquid crystalline compound of 30 mass %.
In Comparative Example 1, there was used a perylenetetracarboxylic acid diimide represented by formula (6), which was an intermediate product in Synthesis Example 1 of Lyotropic Liquid Crystalline Compound. Using this compound, it was tried to obtain a coating liquid having a concentration of the lyotropic liquid crystalline compound of 30 mass % in the same manner as in Example 1.
In Comparative Example 2, there was used a compound represented by formula (7), which was an intermediate product in Synthesis Example 2 of Lyotropic Liquid Crystalline Compound. Using this compound, it was tried to obtain a coating liquid having a concentration of the lyotropic liquid crystalline compound of 30 mass % in the same manner as in Example 1.

[2] = Observation of liquid crystal phase of the coating liquid under a polarizing microscope; format: physicochemical; conditions: 30 mass % in ion-exchanged water, observed at 23° C.
Source text: A small amount of the coating liquid was sandwiched between two glass slides, and a liquid crystal phase thereof was observed using a polarizing microscope (manufactured by Olympus Corporation, product name: “OPTIPHOT-POL”) equipped with a large-sized sample heating/cooling stage for microscope (manufactured by Japan High Tech Co., Ltd., product: name “10013L”).

## C[n+]1ccc(N2C(=O)c3ccc4c5ccc6c7c(ccc(c8ccc(c3c48)C2=O)c75)C(=O)N(c2cc[n+](C)cc2)C6=O)cc1 [formula (4), N,N′-bis(4-N-methylpyridyl)-3,4,9,10-perylenecarboxylic acid diimide dichloride]
[1]; ion-exchanged water, target concentration 30 mass %
  solubility in ion-exchanged water: dissolved in water easily and well
[2]
  liquid crystal phase of coating liquid: nematic liquid crystal phase

## C[n+]1ccc2c(c1)nc1c3ccc4c5ccc6c(=O)n7c8cc[n+](C)cc8nc7c7ccc(c8ccc(c(=O)n21)c3c84)c5c67 [formula (5)]
[1]
  solubility in ion-exchanged water: dissolved in water easily and well
[2]
  liquid crystal phase of coating liquid: nematic liquid crystal phase

## O=C1c2ccc3c4ccc5c6c(ccc(c7ccc(c2c37)C(=O)N1c1ccncc1)c64)C(=O)N(c1ccncc1)C5=O [formula (6), perylenetetracarboxylic acid diimide, reference compound]
[1]
  solubility in ion-exchanged water: scarcely dissolved in ion-exchanged water

## O=c1c2ccc3c4ccc5c6c(ccc(c7ccc(c2c37)c2nc3cnccc3n12)c46)c(=O)n1c2ccncc2nc51 [formula (7), reference compound]
[1]
  solubility in ion-exchanged water: scarcely dissolved in ion-exchanged water
[2]
  liquid crystal phase of coating liquid: no liquid crystal phase
